Earlier results, collected in patent US6207399A, “Methods of determining endogenous thrombin potential (ETP) and thrombin substrates for use in said methods” (Hemker; Hendrik Coenraad, priority 1995, dated 2001).
Peptide text beside a SMILES is read from it. * marks the point of attachment. pNA = O=[N+]([O-])c1ccc(N*)cc1; Bz = O=C(c1ccccc1)*

Tests used:
[1] = tested on: thrombin; settings: Svendsen et al; cited from earlier work
[2] = tested on: thrombin; settings: Serbio patent EP-B-0 280 610; cited from earlier work
[3] = tested on: Factor Xa; settings: Serbio patent EP-B-0 280 610; cited from earlier work
[4] = tested on: plasmin; settings: Serbio patent EP-B-0 280 610; cited from earlier work
[5] = tested on: protein C; settings: Serbio patent EP-B-0 280 610; cited from earlier work

For CC(C)[C@H](NC(=O)[C@H](Cc1ccccc1)NC(=O)c1ccccc1)C(=O)N[C@@H](CCCNC(=N)N)C(=O)Nc1ccc([N+](=O)[O-])cc1 [Benzoyl-Phe-Val-Arg-p-nitroanilide] (Bz-Phe-Val-Arg-pNA), the “kcat /Km” value [1] is given as 90×10^-7 [(NIH units/liter)s]^-1.
In the case of CC(C)[C@H](NC(=O)c1ccccc1)C(=O)N[C@@H](CCCNC(=N)N)C(=O)Nc1ccc([N+](=O)[O-])cc1 [benzoyl-Val-Arg-p-nitroanilide] (Bz-Val-Arg-pNA), the “factor by which poorer substrate for thrombin than Benzoyl-Phe-Val-Arg-p-nitroanilide” value [1] is listed as no less than 100.
In the case of COC(=O)CC(=O)N1C[C@H](O)C[C@H]1C(=O)N[C@@H](CCCNC(=N)N)C(=O)Nc1ccc([N+](=O)[O-])cc1 [CH3 O--CO--CH2 --CO-L-4Hyp-L-Arg-pNA], the “rate of hydrolysis for thrombin” value [2] is listed as 0.61, the “rate of hydrolysis for Factor Xa” value [3] is listed as 0.34 and the “rate of hydrolysis for plasmin” value [4] is listed as 1.12. For the same compound, the “rate of hydrolysis for protein C” value [5] was 0.88.
